# Results: patent US20150018305A1, “SIRTUIN INDUCER, TISSUE REPAIRING AGENT, HEPATOCYTE GROWTH FACTOR INDUCER, TISSUE HOMEOSTASIS MAINTENANCE AGENT, AND TLR4 AGONIST, HAVING HYALURONIC ACID FRAGMENT AS ACTIVE INGREDIENT” (HYALURONAN RESEARCH INSTITUTE, INC., priority 2012, published 2015)
# How the values were obtained:
# [1] = test system: human epidermal keratinocytes; test: Change in size of human epidermal keratinocytes, image analysis (Test Example 3); type: cell-based; details: surface area on the image of a single cell; 0.01 ng/ml, 24 hours
# Procedure: (§1) A test of sirtuin induction in human epidermal keratinocytes was conducted in the same manner as in Test Example 1.
# The change in cell size was analyzed using image analysis software (“Image J”). The 5 results in Table 2 are graphed in FIG. 5. The pixel count in the results indicates surface area on the image of a single cell, with higher values considered to indicate larger cells.
# [2] = test system: stem cells of human epidermal keratinocytes; test: Count of small dividing cells with high sirtuin protein expression, with or without TLR4/MD2 (Test Examples 4-6); type: cell-based; details: for sirtuin protein expression in stem cells (count of small dividing cells with high sirtuin expression) vs negative control: 24 hours; for sirtuin induction in stem cells upon addition of TLR4/MD2: 10 ng/ml fragment plus 1 g/ml of TLR4/MD2
# Procedure: as §1
# The results are shown as average count within the observed visual field.
# In the meantime, similar observations were made in relation to human epidermal keratinocytes cultured in a culture broth to which 10 ng/ml of hyaluronic acid fragment (4mer) and 1 g/ml of TLR4/MD2 (TLR4 (toll-like receptor 4) protein produced by genetic recombination techniques, made by R&D Systems Inc.) were added.
# A test similar to Test Example 5 was carried out, using chemically synthesized three-unit size hyaluronic acid fragments (L3mer) in place of hyaluronic acid fragment (4mer).
# liver of aged rat = test: Liver of aged rat preserved in organ preservation solution, microscopy and bleb count (Test Example 14); details: for sinusoidal constriction and appearance of blebs in liver tissue slice: 100 ng/ml in organ preservation solution, SD rats aged 24 months
# Procedure: The effect of action of the hyaluronic acid fragment on the liver of aged rat was investigated. The following test solutions were prepared.
# (Test Solutions) • Organ preservation solution (University of Wisconsin solution: the standard solution used for organ preservation) • The above organ preservation solution, into which hyaluronic acid fragment (4mer) was dissolved to a final concentration of 100 ng/ml • The above organ preservation solution, into which hyaluronic acid fragment (L3mer) was dissolved to a final concentration of 100 ng/ml • The above organ preservation solution, into which hyaluronic acid fragment (L3mer) was dissolved to a final concentration of 100 ng/ml, then dissolving TLR4/MD2 into the above organ preservation solution, to a final concentration of 10 μg/ml.
# SD rats aged 24 months (aged rats) were injected with the test solutions from the hepatic portal, and after perfusion of 7.5 ml, were preserved for six hours in the same solution at 37° C. Slices were prepared from blocks prepared by freezing of the livers embedded in OCT compound, and were subjected to microscope examination.
# Prior to preservation, distinct sinusoids could be observed. […] Blebs (bubbles) that appear in ischemic liver tissue arise as a result of an activation of Ca ion-dependent proteolytic enzymes and a disorder of the cytoskeletal system, in which lowered ATP levels due to ischemia lead to effusion of Ca ions from the mitochondria to the cellular cytoplasm. In the course of passing through these changes, the liver cells experience cell death. Such changes have been confirmed to occur in clinical conditions such as pharmaceutical toxicity, aging, and the like, and in concanavalin A-induced liver damage.
# [3] = test system: human large intestine epithelial cells (HT29 cells); test: Hydrogen peroxide induced aging of human large intestine epithelial cells, MTS assay (Test Examples 16-18); type: cell-based; details: for suppression of cellular aging (MTS value, OD 490 nm): hydrogen peroxide 10 μM 15 min; for suppression of cellular aging with TLR4/MD2 added (MTS): hydrogen peroxide 10 μM, 100 ng/ml plus TLR4/MD2 10 μg/ml, 3 hours
# Procedure: Human large intestine epithelial cells (HT29 cells) were experienced cellular aging (decline in mitochondrial activity due to injury, or a drop in the MTS value once cell death occurs) due to stimulation by the hydrogen peroxide when treated with hydrogen peroxide, and it was investigated whether this process is affected by treatment with the hyaluronic acid fragment. Specifically, the following test was performed.
# Using a DMEM culture medium (made by Wako Pure Chemical Industries, Ltd.), human large intestine epithelial cells (HT29 cells) were cultured by usual methods at 37° C. under 5% CO2. Hydrogen peroxide was added to the culture medium to a final concentration of 10 μM to bring about stimulation for a 15-minute period, and the culture broth was then transferred to DMEM culture medium containing no hyaluronic acid fragments; to DMEM culture medium containing hyaluronic acid fragment (4mer) in a final concentration of 100 ng/ml; or to DMEM culture medium containing the hyaluronic acid fragment (4mer) plus TLR4/MD2 in a final concentration of 10 μg/ml, and cultured for 3 hours.
# (§2) After 3 hours had passed, an MTS assay was performed. On the basis of the action, in which MTS is converted to formazan by dehydrogenation in the mitochondria of the cell, OD 490 nm was measured to measure mitochondrial function.
# Using hyaluronic acid fragment (4mer), hyaluronic acid fragment (L4mer) and hyaluronic acid fragment (L3mer) as test substances, tests similar to those of Test Example 16 were performed, except that the culture time following transfer to the culture medium containing the test substance was one hour.
# Tests similar to those of Test Example 16 were performed, except for using hyaluronic acid fragment (L4mer), and hyaluronic acid fragment (L3mer) as test substances.
# [4] = test system: human oral epithelial cells (Ca9-22 cells); test: Hydrogen peroxide induced aging of human oral epithelial cells, MTS assay (Test Example 19); type: cell-based; details: hydrogen peroxide 1 μM 15 min, then 100 ng/ml for 3 hours
# Procedure: It was investigated whether the process, in which mitochondrial function of human oral epithelial cells (Ca9-22 cells) declines when treated with hydrogen peroxide, is affected by treatment with the hyaluronic acid fragment. Specifically, the following test was performed.
# Using a DMEM culture medium (made by Wako Pure Chemical Industries, Ltd.), human oral epithelial cells (Ca9-22 cells) were cultured by usual methods at 37° C. under 5% CO2. Hydrogen peroxide was added to the culture medium to a final concentration of 1 μM to bring about stimulation for a 15-minute period, and the culture broth was then transferred to DMEM culture medium containing no hyaluronic acid fragments; to DMEM culture medium containing hyaluronic acid fragment (L3mer) in a final concentration of 100 ng/ml; to DMEM culture medium containing hyaluronic acid fragment (4mer) in a final concentration of 100 ng/ml; or to DMEM culture medium containing 900 kDa hyaluronic acid in a final concentration of 100 ng/ml, and cultured for 3 hours.
# as §2
# Keratin K14 = test: Keratinocyte marker Keratin K14 in human epidermal keratinocytes (Test Example 22); type: cell-based; details: for Keratin K14 induction with TLR4/MD2 added: plus TLR4/MD2 1 μg/ml; for cells with high expression of Keratin K14 (immunostaining intensity): stimulated as in Test Example 1
# Procedure: (§3) Human epidermal keratinocytes were stimulated in the same manner as in Test Example 1, except for using the 4mer or the L3mer as the hyaluronic acid fragment, and further adding TLR4/MD2 to a final concentration of 1 μg/ml.
# The cells in each well were stained with anti keratin K14 antibody, and the immunostaining intensity was measured with an Array Scan scanning device (made by Thermo Scientific). Keratin K14 is a marker of basal layer keratinocytes.
# filaggrin = test: Keratinocyte marker Filaggrin in human epidermal keratinocytes (Test Example 23); type: cell-based; details: for filaggrin induction with TLR4/MD2 added: plus TLR4/MD2 1 μg/ml; for cells with high expression of filaggrin (immunostaining intensity): stimulated as in Test Example 1
# Procedure: as §3
# The cells in each well were stained with the anti filaggrin antibody, and the immunostaining intensity was measured with an Array Scan scanning device (made by Thermo Scientific). Filaggrin, which is produced by granular layer keratinocytes, is a marker of mature keratinocytes.
# [5] = then test substance for one hour
SMILES,Average pixel count [1],sirtuin protein expression in stem cells (count of small dividing cells with high sirtuin expression) vs negative control ([2]; 0.01 ng/ml),sirtuin induction in stem cells upon addition of TLR4/MD2 [2],sirtuin protein expression in stem cells (count of small dividing cells with high sirtuin expression) vs negative control ([2]; 10 ng/ml),sinusoidal constriction and appearance of blebs in liver tissue slice (liver of aged rat; six hours at 37° C.),"suppression of cellular aging (MTS value, OD 490 nm) ([3]; then 100 ng/ml for 3 hours)","suppression of cellular aging (MTS value, OD 490 nm) [3, 5]",suppression of cellular aging with TLR4/MD2 added (MTS) [3],"suppression of cellular aging (MTS, mitochondrial function) [4]",Keratin K14 induction with TLR4/MD2 added (Keratin K14),cells with high expression of Keratin K14 (immunostaining intensity) (Keratin K14),filaggrin induction with TLR4/MD2 added (filaggrin),cells with high expression of filaggrin (immunostaining intensity) (filaggrin),effect in suppressing the appearance of blebs with TLR4/MD2 added (bleb count) (liver of aged rat; 100 ng/ml plus TLR4/MD2 10 μg/ml),"condition of liver tissue slice with TLR4/MD2 added (liver of aged rat; 100 ng/ml plus TLR4/MD2 10 μg/ml, six hours at 37° C.)","effect of suppressing the appearance of blebs (bleb count per unit surface area) (liver of aged rat; 100 ng/ml, comparison L3mer vs 4mer)"
"CC(=O)N[C@H]1[C@H](O[C@H]2[C@H](O)[C@@H](O)[C@H](O[C@H]3[C@H](O)[C@@H](CO)OC(O)[C@@H]3NC(C)=O)O[C@@H]2C(=O)O)O[C@H](CO)[C@@H](O)[C@@H]1O[C@@H]1O[C@H](C(=O)O)[C@@H](O)[C@H](O)[C@H]1O (stereo partly drawn) [4mer, GlcA(-GlcNAc-GlcA)1-GlcNAc]",124515.9333,markedly promoted,completely inhibited,markedly promoted,sinusoidal constriction and appearance of blebs were suppressed,suppressed cellular aging,showed effect in suppressing cellular aging,inhibited by addition of TLR4/MD2,suppress cellular aging,inhibited by addition of TLR4/MD2,cells with high expression of Keratin K14 increased,inhibited by addition of TLR4/MD2,cells with high expression of filaggrin increased,–,–,–
CC(=O)NC1C(O[C@@H]2OC(C(=O)O)[C@@H](O)C(O)C2O)[C@H](O)C(CO)O[C@H]1O[C@@H]1C(C(=O)O)O[C@@H](OCCCN=[N+]=[N-])C(O)C1O (stereo partly drawn) [L3mer],–,–,substantially completely inhibited,give rise to sirtuin induction,sinusoidal constriction and appearance of blebs were suppressed,showed effect in suppressing cellular aging,showed effect in suppressing cellular aging,inhibited by the addition of TLR4/MD2,suppress cellular aging,inhibited by addition of TLR4/MD2,cells with high expression of Keratin K14 increased,inhibited by addition of TLR4/MD2,cells with high expression of filaggrin increased,reduced by the addition of TLR4/MD2,numerous blebs (bubbles) appeared,higher with L3mer treatment than with 4mer treatment
